Columns and labels:
MurA [1] = target: T1, MurA (Escherichia coli, UniProt P0A749); test: coupled phosphate-release fluorescence assay (7-methylguanosine / purine nucleoside phosphorylase), global fit; assay type: biochemical; conditions: 1 mM phosphoenolpyruvate, pH 7.5, 50 mM NaCl; global fit with UNAG-3P inhibition
T1 construct: purified enzyme

MurA [2] = target: T1, MurA; test: as above; assay type: biochemical; conditions: competitive with UNAG; 1 mM phosphoenolpyruvate, pH 7.5, 50 mM NaCl

T1 sequence (P0A749 whole entry): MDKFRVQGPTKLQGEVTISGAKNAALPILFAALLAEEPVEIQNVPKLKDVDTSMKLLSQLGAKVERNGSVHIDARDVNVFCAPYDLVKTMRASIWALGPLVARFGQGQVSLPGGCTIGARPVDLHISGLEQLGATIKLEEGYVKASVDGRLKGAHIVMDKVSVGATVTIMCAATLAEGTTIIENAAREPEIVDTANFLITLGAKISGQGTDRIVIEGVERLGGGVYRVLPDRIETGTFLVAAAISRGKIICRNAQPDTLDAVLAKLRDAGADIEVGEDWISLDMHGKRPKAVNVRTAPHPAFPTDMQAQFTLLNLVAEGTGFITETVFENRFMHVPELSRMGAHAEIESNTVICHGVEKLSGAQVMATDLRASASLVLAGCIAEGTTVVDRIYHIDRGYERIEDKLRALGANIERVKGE

How did the Km (MurA [1]) turn out when `CC(=O)N[C@H]1[C@@H](OP(=O)(O)OP(=O)(O)OC[C@H]2O[C@@H](n3ccc(=O)[nH]c3=O)[C@H](O)[C@@H]2O)O[C@H](CO)[C@@H](O)[C@@H]1O` [UNAG] was run?
Its Km is 15 µM.

`CC(=O)N[C@H]1[C@@H](OP(=O)(O)OP(=O)(O)OC[C@H]2O[C@@H](n3ccc(=O)[nH]c3=O)[C@H](O)[C@@H]2O)O[C@H](CO)[C@@H](O)[C@@H]1OP(=O)(O)O` [UNAG-3P] was tested. Which Ki (MurA [2]) did it give?
Its Ki is 7 µM.

Source: article PMC3062530, “A Novel Mechanism of Programmed Cell Death in Bacteria by Toxin–Antitoxin Systems Corrupts Peptidoglycan Synthesis” (PLoS Biology, 2011)
